Series [1] deals with T1, protocollagen prolyl hydroxylase (Gallus gallus, UniProt P16924).
T1 construct: 190 chick embryos (14 days old) were homogenized; from tissue; host or cells: whole 14-day chick embryos; Triton X-100 extract, ammonium sulfate, calcium phosphate gel and DEAE-cellulose fractions
T1 sequence (P16924 1-516): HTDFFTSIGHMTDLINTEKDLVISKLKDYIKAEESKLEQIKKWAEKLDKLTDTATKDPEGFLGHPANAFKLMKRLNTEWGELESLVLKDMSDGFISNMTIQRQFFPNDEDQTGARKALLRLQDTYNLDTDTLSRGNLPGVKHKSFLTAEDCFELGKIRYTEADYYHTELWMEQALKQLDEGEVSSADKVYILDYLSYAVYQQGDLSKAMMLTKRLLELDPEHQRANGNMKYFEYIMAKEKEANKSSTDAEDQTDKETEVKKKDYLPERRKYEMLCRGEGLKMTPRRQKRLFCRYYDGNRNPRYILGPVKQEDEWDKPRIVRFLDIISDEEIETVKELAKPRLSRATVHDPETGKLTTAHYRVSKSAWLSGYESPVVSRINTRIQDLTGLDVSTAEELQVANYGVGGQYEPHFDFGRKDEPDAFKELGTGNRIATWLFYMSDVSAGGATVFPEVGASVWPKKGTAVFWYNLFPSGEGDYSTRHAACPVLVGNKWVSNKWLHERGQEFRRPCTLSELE
T1 sequence (P09102 23-515 partner): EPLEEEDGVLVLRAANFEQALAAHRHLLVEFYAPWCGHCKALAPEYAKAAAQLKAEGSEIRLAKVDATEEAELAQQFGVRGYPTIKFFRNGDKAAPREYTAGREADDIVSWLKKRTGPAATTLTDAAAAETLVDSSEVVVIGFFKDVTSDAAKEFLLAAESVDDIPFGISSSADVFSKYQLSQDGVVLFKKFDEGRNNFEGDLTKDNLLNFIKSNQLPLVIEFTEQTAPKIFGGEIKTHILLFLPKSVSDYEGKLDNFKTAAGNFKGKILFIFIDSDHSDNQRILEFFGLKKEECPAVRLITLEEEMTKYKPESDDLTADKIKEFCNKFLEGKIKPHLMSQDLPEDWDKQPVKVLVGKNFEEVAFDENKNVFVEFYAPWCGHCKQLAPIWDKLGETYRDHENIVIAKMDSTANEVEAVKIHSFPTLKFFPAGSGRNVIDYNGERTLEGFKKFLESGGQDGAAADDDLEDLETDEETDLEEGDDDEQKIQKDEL
In words: Activity to inhibit protocollagen prolyl hydroxylase. Particulars: concentration required for 50% inhibition of enzymic activity; pH 7.8, 37° C., 30 minutes; substrate (Pro-Pro-Gly)5.4H2O; read-out: ID50 (the source's name) (converted). The class given is biochemical, chick embryos. How it is done: Method for the preparation of protocollagen prolyl hydroxylase: The method of K.I. Kivirikko et al and that of J. Halme et al were partially modified. [cf. Journal of Biological Chemistry 242, 4007 (1967) and Biochimica et Biophysica Acta 198, 460 (1970)]. Thus, 190 chick embryos (14 days old) were homogenized in 1600 ml of NaCl-GlycineTris[tris(hydroxymethyl)aminomethane]-HCl buffer containing 0.1% Triton [polyethylene glycol p-isooctylphenyl ether] X-100 (pH 7.5) and centrifuged. […]
Thus, 1.5 ml of a reaction mixture containing 50 μmols of Tris-HCl buffer (pH 7.8), 0.1 μmol of 1-^14 C-α-ketoglutarate (0.016 μ Ci), 0.5 μmol of ascorbate, 0.1 μmol of ferrous ammonium sulfate, 4.0 mg of heat denatured bovine serum albumin, 0.1 mg of crystalline bovine liver catalase, 0.15 μmol of dithiothreitol, 0.15 mg of (Pro-Pro-Gly)5.4H2 O, 0.5 ml of the enzyme solution and 0.1 ml of either methanol or methanol solution containing an inhibitor was put in a sealed test tube in which a filter paper impregnated with Hyamine (Hydroxide and Hyamine 10-X (Packard Instrument Co.)] had been hung and the reaction was carried out under shaking at 37° C. for 30 minutes. The reaction was terminated by the addition of 0.5 ml of 25% trichloroacetic acid and the enzymic activity was determined by measuring the radioactivity of the released ^14 CO2 trapped in filterpaper. […]

Series [2] can be described thus: Acute toxicity. On the set-up: species or system male 4-week-old mice. The settings on record: mouse, in vivo, ip; intraperitoneal; mice, groups of 5; 8 days observation. The procedure: Protocatechuic acid was intraperitoneally administered to male 4-week-old mice in groups of 5 animals and the animals were kept under observation for 8 days. The LD50 values thus found was >400 mg/kg for it.

In series [3] the test system is protocollagen prolyl hydroxylase. Briefly: Protocollagen prolyl hydroxylase activity in liver in carbon tetrachloride-induced hepatic cirrhosis. It counts as in vivo, Male Sprague-Dawley rats. Particulars: CCl4 + compound, i.p. 100 mg/kg three times weekly, total 10 doses, dpm = decay per minute. How it is done: (§1) Male Sprague-Dawley rats weighting approximately 150 g each were divided into three groups. The first group received both 10% CCl4 -olive oil mixture (1 ml/rat) and compound (I) (100 mg/kg) intraperitoneally three times weekly for a total 10 doses. The second and third groups received 10% CCl4 -olive oil mixture (1 ml/rat) and olive oil (1 ml/rat) intraperitoneally three times weekly for a total 10 doses, respectively. The rats were sacrificed two days after the last injection and the livers were immediately removed for the assays.
A 10% homogenate of the liver was prepared in 20 m mol/l Tris-HCl buffer (pH 7 5) containing 0.2 mol/l NaCl, 0.1 mol/l glycine, 5×10^-5 mol/l 1,4-dithiothreitol, and 0.1% Triton X-100 using a Polytron homogenizer. The homogenate was centrifuged at 15,000 g for 20 minutes and the clear supernatant was assayed for protocollagen prolyl hydroxylase activity by the method of Hutton et al [Analytical Biochemistry 16, 384 (1966)]. The protein content of the homogenate was measured by the method of Lowry et al [Journal of Biological Chemistry 193, 265 (1951)] using bovine serum albumin as the standard.
(§2) The specific activity of protocollagen prolyl hydroxylase and hydroxyproline content in the liver treated with the compound as shown in Table 3.

Series [4] has as its system collagen biosynthesis. Briefly: Hydroxyproline content of liver in carbon tetrachloride-induced hepatic cirrhosis. The class given is in vivo, Male Sprague-Dawley rats. The settings on record: CCl4 + compound, i.p. 100 mg/kg three times weekly, total 10 doses. The procedure: as §1
Hydroxyproline content of the livers was measured in a 6N-HCl hydrolysate (110° C., 22h) by the method of Blumenkrantz et al.
as §2

Series [5] has as its system collagen biosynthesis. In words: Inhibition of collagen biosynthesis in normal rats (uteri of 17-β-estradiol-stimulated immature rats). It counts as in vivo, SD rats (female, 3 weeks old). Particulars: i.p. 100 mg/kg at intervals of 24 hours, 6 days; for inhibition at 100 mg/kg: Rattus norvegicus, ip, vs 17-β-estradiol control. How it is done: According to the partially modified method of R.A. Salvador et al [Archives of Biochemistry and Biophysics 174, 382 (1976)], the following experiment was carried out with SD rats (female, 3 weeks old) in groups of 4 animals.
The test compound suspended in 4% gum arabic-physiological saline was intraperitoneally administered to rats in doses of 100 mg/kg at intervals of 24 hours for 6 consecutive days.
During the final 3 days, 5 μg/rat of 17-β-estradiol in 5% ethanol-saline solution or 5% ethanol-saline solution was administered one hour after the administration of compound (I). On the 7th day, each rat was killed and the uterus was excised, washed with ethanol-diethylether, dried at 60° C. for 2 hours and weighted to know the dry weight. The dry preparation was hydrolyzed with 3 ml of 6N-HCl at 110° C. for 22 hours, after which it was concentrated to dryness to remove the hydrochloric acid. The total amino acid in the hydrolyzate was determined by ninhydrin assay and from this value the total protein content of uterus was calculated as leucine equivalent. The amount of hydroxyproline in the hydrolyzate was also measured by the method of Blumenkratz et al [Analytical Biochemistry 63, 331 (1975)] and multiplied by 7.23 to obtain the amount of collagen. The amount of noncollagenous protein was calculated by substracting the amount of collagen from the total amount of protein.
The inhibitory activity of this compound on the synthesis of collagen and noncollagenous protein in the uteri of 17-β-estradiol-stimulated immature rats are shown as % reductions in the amounts of collagen and noncollagenous protein. Inhibition rate is calculated by the equation described in the legend of Table 2.

Where [6] appears, read: 17-β-estradiol + compound, uterus, 7th day.

Read-outs that look alike come from different tables or passages of the source.

As usually defined, the LD50 is the dose at which mortality reaches 50%. What is called inhibition is the share of the control response that was lost under treatment.

`O=C(O)Cc1ccc(O)c(O)c1` [Homoprotocatechnic acid, homoprotocatechuic acid]: the IC50 in series [1] was 17.8 µM.

`O=C(O)c1ccc(O)c(O)c1` [Protocatechuic acid, protocatechuic acid]: the LD50 at 192 h in series [2] is above 400 mg/kg. The Prolyl hydroxylase in series [3] is reported as 1463 ± 236 dpm/mg of protein. In series [1], the IC50 is 19.5 µM. In series [4], the Hydroxyproline is on record as 0.70 ± 0.09 μg/mg of liver. Also, the “Body weight of rats, 7th day” value in series [5] (17-β-estradiol + compound) turned out to be 75 ± 3 g. In series [5] (setting [6]), the Total collagen was determined as 3.31 ± 0.37 mg/uterus and the Total protein is 25.4 ± 2.2 mg/uterus. In addition, the inhibition at 100 mg/kg in series [5] (uterus, read-out: Inhibition rate, collagen) stood at 85%. Also, the inhibition at 100 mg/kg in series [5] (uterus, read-out: Inhibition rate, noncollagenous protein) was 15%.
